From a melting point compilation (Tetko et al.; mined from patent text by program, amines drawn as free bases though some values may be those of a salt) come the findings set out here.

Where only a bound is given, the exact number is not on record here.

In turn, `O=C1Cc2cc(Cl)cc(C(=O)c3ccc(F)cc3)c2N1` had a melting point of 222 to 225 °C.

`CCCCCCCCCCCCCCCCSCC(CN)NC(=O)OC(C)(C)C` (stereo unspecified) showed a melting point of 46 to 47 °C.

For the compound `O=[N+]([O-])c1cccc2cc(O)c(O)cc12`, the melting point lay in the range of 199 to 201 °C.

Compound `CCOC(=O)C(Cc1ccccc1)CP(=O)(OCC)OCC` (stereo unspecified) gave a melting point of 58 to 72 °C.

Compound `O=C(O)c1ccc(=O)n(Cc2ccc(-c3ccccc3)cc2)c1` had a melting point of 245 to 250 °C.

Turning to `CN(C)c1nc(N(C)C)c2nnn(Cc3ccccc3F)c2n1`, the melting point fell in the range of 123 to 125 °C.

In turn, `COc1c(N2CCC(N)C2)c(F)c(N)c2c(=O)c(C(=O)O)cn(C3CC3)c12` (stereo unspecified) gave a melting point of 254 to 257 °C.

`COc1ccc(-c2c(C(=O)O)c(=O)[nH]c3ccc(C)cc23)cc1OC` returned a melting point of 240 to 241 °C.

Compound `Cc1ccc2c(c1)C1(CNC(=O)C1)CC2=O` (stereo unspecified) registered a melting point of 188 to 192 °C.

`COc1cc(OC)c(N=C=O)c(OC)c1` had a melting point of 67 to 70 °C.

`Cn1cccc1C(=O)Nc1nc(-c2cccc(C#N)c2)c(-n2cncn2)s1` had a melting point of 245 to 247 °C.

Regarding `COc1ccc(Cn2c(N)c(NC(=O)C(C)(C)OCc3ccccc3)c(=O)[nH]c2=S)cc1OC1CCCC1`, the melting point is 198 to 202 °C.

`CC(C)(C)OC(=O)NCC(Cl)c1ccsc1` (stereo unspecified) gave a melting point of 63 to 65 °C.

`COc1ccc(Nc2c([N+](=O)[O-])ccc(Cl)c2C(=O)O)cc1` had a melting point of 205 to 213 °C.

As to `CCc1nc2cnc3ccc(OCc4ccccc4)cc3c2n1C`, the melting point is 168 to 169 °C.

For the compound `COc1cc(C2=C(c3c(C)[nH]c4ccccc34)C(=O)NC2=O)cc(OC)c1OC`, the melting point was 266 °C.

Compound `CC(C)Cn1c(CO)nc2cnc3ccccc3c21` returned a melting point of 165 to 168 °C.

With `COc1cc2cn(-c3c(C)c(C)c4c(c3C)C(c3ccc(C)cc3)C(C)(C)O4)cc2cc1OC` (stereo unspecified), the melting point fell in the range of 146 to 147 °C.

`O=C1COCCN1c1ccc(N2C[C@@H](CN(Cc3ccccc3)Cc3ccccc3)OC2=O)cc1` showed a melting point of 140 to 145 °C.

In turn, `O=S1(=O)NC(C2CC2)Nc2ccc(S(=O)(=O)N3CCCCC3)cc21` (stereo unspecified) had a melting point of 228 to 231 °C.

`Cc1ccc(NC(=S)NCCCO)c(C)c1`: the melting point lay in the range of 90 to 93 °C.

For the compound `Cc1c(C(N)=O)sc2cncc(Oc3ccc(Cl)cc3)c12`, the melting point was 174 to 175 °C.

With `CCC#CN1CCC(O)(Cc2ccccc2)CC1`, the melting point was 51 to 53 °C.

Compound `CC(=O)OCc1ccc(-c2[nH]c(-c3cccc4ccccc34)nc2C(=O)Nc2nccs2)cc1` returned a melting point of 197 to 199 °C.

Take `COc1cc(C(=O)O)ccc1Cc1cccc2ccc(C(N)=O)cc12`: the melting point was in the range of 283 to 285 °C.

As to `CCCCc1cc2c(=O)n3cc(C(N)=O)ccc3nc2s1`, the melting point fell in the range of 266 to 267 °C.

`N#CC(NC(=O)c1cccn2cc(-c3ccccc3)nc12)c1cccc(Cl)c1` (stereo unspecified) gave a melting point of 210 to 211 °C.

Consider `CCCc1c(CSc2nnc(S)s2)ccc(C(C)=O)c1O`, for which the melting point was 133 to 135 °C.

For the compound `O=C(NC1CCN(CCCC2=CCc3ccccc32)CC1)c1ccccc1`, the melting point is 157 to 159 °C.

`S=C(NCc1ccc(Cl)cc1Cl)N1CCc2c([nH]c3ccccc23)C1c1ccc2c(c1)OCO2` (stereo unspecified) gave a melting point of 124 to 127 °C.

Compound `CON=C(c1noc(C)n1)c1cc(Cl)ccc1OCc1ccc(Cl)cc1` had a melting point of 127 to 128 °C.

Consider `O=c1ccn(-c2ccccc2C(F)(F)F)nc1-c1ccnn1-c1ccccc1`, for which the melting point was 145 to 146 °C.

Consider `O=Cc1cn(-c2ccccn2)nc1-c1ccc([N+](=O)[O-])o1`, for which the melting point was in the range of 191 to 192 °C.

For the compound `CCCCCCCCCCCCCCCc1c([N+](=O)[O-])cc([N+](=O)[O-])c(OC)c1C(=O)O`, the melting point is 68 to 75 °C.

`O=C(COc1ccccc1)Nc1ccc(CN2C(=O)[C@H]3CCC[C@H]3N(C(=O)CN3C(=O)c4ccccc4C3=O)c3ccccc32)cc1` (relative stereo): the melting point lay within 134 to 137 °C.

In turn, `O=C(Nc1ccc(Cl)c(C(F)(F)F)c1)c1ccccc1NCc1ccc(=O)[nH]c1` came in with a melting point of 231 °C.

For the compound `CC(C)(C)c1ccc(CN2CCN(Cc3ccc(NS(C)(=O)=O)cc3)C2=O)cc1`, the melting point was in the range of 166 to 168 °C.

In turn, `COc1ccc(COC(=O)[C@H]2CC[C@H](C(=O)O)CC2)cc1` had a melting point of 87 to 89 °C.

`CCCc1cc(COc2cc(C)nc(C)c2OC)ccc1-c1ccccc1S(=O)(=O)Nc1noc(C)c1C`: the melting point is 56 to 59 °C.

On to `O=S(=O)(CC(F)(F)F)Nc1ccc(Oc2ccc(F)cc2F)cc1`, for which the melting point is 105 to 108 °C.

As to `OC(Cn1ccnc1)c1ccccc1` (stereo unspecified), the melting point lay within 146 to 148 °C.

On to `Cc1ccc2c(Br)c(Br)sc2c1`, for which the melting point lay within 67.5 to 68.5 °C.

Compound `O=S1(=O)NC(C2CCCCC2)Nc2ccc(S(=O)(=O)N3CCCC3)cc21` (stereo unspecified) registered a melting point of 244 to 246 °C.

`COC(=O)C1=C(C)NC(C)=CC1c1ccccc1OCc1ccc(C)cc1` (stereo unspecified) registered a melting point of 107 to 109 °C.

The compound `O=C1C2CCCN2C(=O)N1c1ccc([N+](=O)[O-])c2ccccc12` (stereo unspecified) came in with a melting point of 215 to 217 °C.

As for `CCCCCc1c(C=O)sc2cc(OC)ccc12`, the melting point is 44 to 46 °C.

The compound `CN1C(=O)COc2cc3c(cc21)C1(CO3)C(=O)Nc2ccccc21` (stereo unspecified) had a melting point greater than 250 °C.

In turn, `c1ccc2c(c1)c1ccccc1n2C1CCCCO1` (stereo unspecified) yielded a melting point of 131 to 133 °C.

For the compound `COc1ccc(CN(Cc2ccc(OC)cc2)S(=O)(=O)c2ccc(N(CCS(C)(=O)=O)Cc3ccc(C)cc3)cc2)cc1`, the melting point was 85.7 to 86.6 °C.

`COC1=C(C)C(=O)C2=C(C1=O)C(COC(N)=O)C1(OC)C3NC3CN21` (stereo unspecified) displayed a melting point of 161 °C.

On to `COC(=O)c1cccc2c1c1c(n2Cc2ccccc2)CN(Cc2ccccc2)CC1=O`, for which the melting point was 198 to 199 °C.

Turning to `COC(=O)c1cc(C#CC2(c3ccc(OC)c(OC4CCCC4)c3)CCC(=O)CC2)cc(C(=O)OC)c1`, the melting point is 134 to 135 °C.

In turn, `O=C(N[C@@H]1CN(C2CCCCC2)C[C@H]1O)c1ccccc1` (relative stereo) yielded a melting point of 154 to 156 °C.

Regarding `COc1ccc(C(=O)C2=C(c3ccccc3)c3ccc(OC)cc3C2)cc1`, the melting point was in the range of 113 to 114 °C.

`COC(C)(CCCCCC(C)(C)O)c1cccc(C=Cc2cc(O)cc(O)c2)c1` (stereo unspecified): the melting point lay within 65 to 75 °C.

As for `COc1ccc(CC(SC)C(=O)O)cc1C(=O)NCc1ccc(C(F)(F)F)cc1` (stereo unspecified), the melting point is 170 to 171 °C.

Compound `CCCc1c(OCCCOc2ccc(C(=O)C(=O)O)cc2)ccc(C(=O)O)c1O` yielded a melting point of 182 to 185 °C.

Take `NC(=O)c1nccn1C1Cc2ccc(Cl)cc2C1=O` (stereo unspecified): the melting point was found to be 190 °C.

Compound `Cc1nc(N)sc1S(=O)(=O)NCCO` had a melting point of 151 °C.

Take `O=C1c2ccccc2C(=O)N1Nc1ccc(Br)cc1`: the melting point is 205 to 206 °C.

`CCOC(=O)COc1cc2c(c(O)c1Cl)C(=O)CC1(CCCCC1)O2` registered a melting point of 103 to 104 °C.

`CCCCc1nc2c(N)nc3cc(-c4cccnc4)ccc3c2n1CCNC(=O)NC(C)C` showed a melting point of 240 to 241 °C.

The compound `CN(Cc1cc2c(=O)c(C(=O)NCc3ccc(Cl)cc3)cn(C)c2o1)CC(O)c1ccc(-c2ccccc2)o1` (stereo unspecified) showed a melting point of 115 to 119 °C.

Compound `CC(C)NC(=O)c1c(NC(=O)c2cc(C(F)(F)F)nn2-c2ncccc2Cl)c(Br)cc2cn[nH]c12` showed a melting point of 189 to 190 °C.

As for `CCN(CC)CCCNC(=O)Cn1ncc(-c2ccccn2)c1-c1ccccc1`, the melting point was 82 to 83 °C.

For the compound `CN(C)C=C1C[N+]([O-])=C(c2ccccc2F)c2cc(Cl)ccc2C1=O`, the melting point lay within 175 to 178 °C.

In turn, `O=C(NCCc1ccc(Cl)cc1)C1Cc2ccccc2N1S(=O)(=O)c1ccc(-c2ccc(F)cc2)cc1` (stereo unspecified) registered a melting point of 126 °C.

The compound `O=C(O)Cn1c(Cc2ccccc2)ccc(NS(=O)(=O)CCc2ccccc2)c1=O` yielded a melting point of 165 to 167 °C.

The compound `CS(=O)(=O)Nc1ccc([N+](=O)[O-])cc1OC1CCSCC1` registered a melting point of 200 °C.

The compound `COC[C@H]1C[C@@H](n2cnc3c(N[C@H]4CCN(c5ccc(C(F)(F)F)cn5)C4)ncnc32)[C@@H](O)[C@H]1O` registered a melting point of 166 to 168 °C.

Turning to `CCCCCC1OC12CCC(Nc1ncnc(CC)c1Cl)CC2` (stereo unspecified), the melting point lay in the range of 41 to 42 °C.

Compound `O=C1CCC2(CC1)CC(=O)NC2=O` registered a melting point of 154 °C.

The compound `CC1(C)OC(=O)C(Oc2ccc3sccc3c2)=C1c1ccc(S(C)(=O)=O)cc1` returned a melting point of 150 to 152 °C.

In turn, `Cn1c2ccc(Cl)cc2c(=O)n2nc(C(N)=O)cc12` showed a melting point greater than 360 °C.

Take `N=C(N)NCCCC(NC(=O)C(CS)Cc1ccccc1)C(=O)O` (stereo unspecified): the melting point came to 135 °C.

The compound `COc1cc(OC)nc(Oc2ccc3ccccc3c2C=NNc2ccccc2)n1` registered a melting point of 148 °C.

`COc1ccc(-c2nc3n(c2-c2ccc(OC)cc2)CCC3)cc1`: the melting point is 146 to 148 °C.

`CNC(=O)C(Cc1ccc(OCCc2nc(-c3ccccc3)oc2C)cc1)C(=O)NC` showed a melting point of 217 to 219 °C.

In the case of `CC(C)n1c(C=O)c(-c2ccc(F)cc2)c(-c2ccccc2)c1C(=O)Nc1cccc(S(N)(=O)=O)c1`, the melting point is 224 to 225 °C.

With `C#CCN(C(C)C)S(=O)(=O)NC(=O)c1cc(-n2c(=O)cc(C(F)(F)F)n(C)c2=S)c(F)cc1Cl`, the melting point was in the range of 94 to 105 °C.

`Cc1oc2c(-c3ccc(F)cc3)c(-c3ccc(S(C)(=O)=O)cc3)nn2c1-c1ccc(Cl)s1` came in with a melting point of 222 to 223 °C.

For `O=C(NC1CCCCC1)N(C(=O)c1ccccc1[N+](=O)[O-])C1CCCCC1`, the melting point came to 134 °C.

Regarding `CC1(C)[C@H](C(=O)O)[C@@H]1C=C1CCSC1=O`, the melting point was found to be 162 °C.

On to `CCOC(=O)N=NC(=O)OCC`, for which the melting point fell in the range of 120 to 121 °C.

As to `Cc1cc(C)n(CC(C)C)c(=O)c1C#N`, the melting point fell in the range of 126 to 128 °C.

In turn, `O=S(=O)(c1ccccc1)n1ccc2ccc3c4cc(Br)ccc4[nH]c3c21` returned a melting point of 173 to 175 °C.
